Reference: patent US11413328B2, “Methods for treating inflammatory conditions of the lungs” (priority 2016, dated 2022)
Bridges are numbered along the chain shown (N, C = ends). Where no end group is shown, it is not given here.

Key:
[1] = test system: murine, infection induced, severe, steroid-insensitive, neutrophilic, allergic airways disease model of asthma; assay: Airway hyper-responsiveness (Flexivent), Ovalbumin/C. muridarum steroid-insensitive asthma model; format: in vivo, BALB/c mice; settings: Ova sensitized, C. muridarum infected mice; hBD-2 IN 5 mg/kg day 30, 32, 34; DEX IN 2 mg/kg day 32-34; vs Saline control
Procedure: Female 6-8 weeks old BALB/c mice were intraperitoneally (IP) sensitized to ovalbumin 50 μg with the adjuvant alum 1 mg in 200 μL 0.9% saline. Mice were intranasally (IN) challenged with Ova on day 12-13 and day 33-34 (10 μg in 50 μL sterile saline).

[2] = Pharmacokinetics after subcutaneous or intravenous administration; format: in vivo, NMRI female mice; settings: female, NMRI, mouse, hBD-2 1 mg/kg subcutaneous or intravenous
Procedure: To investigate and compare the pharmacokinetic profile of hBD-2 fused to the C-terminal (molecular weight 71.336 Da) or N-terminal (molecular weight 71.666 Da) of human serum albumin following subcutaneous or intravenous administration of a molar equivalent to 1 mg/kg hBD-2 (molecular weight […]) to NMRI female mice.
The animals were dosed 10 ml/kg of stock concentration of 1.65 mg/ml according to the individual body weight (300 μL for a 30 gram mouse). First blood sample was taken using a submandibular sampling method and the second following Isoflurane anaesthesia and euthanasia.

GIGDPVTCLKSGAICHPVFCPRRYKQIGTCGLPGTKCCKKP (disulfide 8-37, 15-30, 20-38 (inferred)) [hBD-2, human beta defensin 2]
AHR (airway hyper-responsiveness) [1]: completely normalized | half-life ([2]; blood): 1 h | CL renal ([2]; in vivo, read-out: renal clearance): 10 mL/min
